# Measurements taken from ChEMBL document CHEMBL3507680, “University of Dundee, Gates Library screen for HepG2 cell viability”.
# Experiment: Human HepG2 cell viability assay in 384 well format
# Format: toxicity, cell-based
# Parameters: dose 125 nL, time 70.5 hour; concentration not given beside the values
# Settings: HepG2 cells, read-out: Inhibition
row,SMILES,cytotoxicity at 70.5 h
1,C[C@H]1C[C@@H]2CCN(Cc3ccco3)C[C@H]2O1,-7.2%
2,COCC(=O)N1C[C@H]2CN(Cc3cccc(F)c3)C(=O)[C@H]2C1,8.07%
3,O=C(NC1CC1)N1C[C@H]2CN(Cc3cccc(F)c3)C(=O)[C@H]2C1,-13.8%
4,Cc1ccc(C(=O)N2C[C@H]3CCC[C@@]3(COCC3CCOCC3)C2)o1,-5.19%
5,CN1C(=O)CC(c2cnn(C)c2)C12CCN(C(=O)c1ccco1)CC2 (configuration not stated),-6.73%
6,Cc1ccc(CN2CCN(C)c3ncccc3C2)o1,-6.49%
7,CN1C(=O)CC(c2cnn(C)c2)C12CCN(C(=O)c1cccn1C)CC2 (configuration not stated),-13.1%
8,CS(=O)(=O)N[C@H]1CN(C(=O)c2cscn2)[C@@H]2CCCO[C@H]12,-8.41%
9,O=C(c1ccoc1)N1CC[C@@H]2O[C@@H](COCC3CCOCC3)CC[C@@H]21,16%
10,CC(C)Nc1ncnc2c1CCN(C(=O)CC1CCCC1)CC2,9.38%
11,Cc1ccsc1C(=O)N1CCc2ncnc(NC(C)C)c2CC1,-7.7%
12,O=C(c1ccncn1)N1C[C@H]2CCC[C@@]2(COCC2CCOCC2)C1,-14.6%
13,Cc1nc(COC[C@H]2CCC[C@]23CN(C2CCOC2)CCO3)cs1 (some centres not stated),22.4%
14,O=C(NCC1CC1)C1CN(C(=O)Nc2ccccc2)CC12CCOCC2 (configuration not stated),-5.6%
15,CC(C)NC(=O)c1cc2c(c3ccccc3n2C)n1C(=O)N(C)C,-9.14%
16,CC(C)NC(=O)C1CN(C(=O)c2ccccc2)CC12CCOCC2 (configuration not stated),-5.57%
17,O=C(c1cccnc1)N1CCC2(CC1)CN(c1ccccn1)CCO2,-13.7%
18,COc1cc(N2C[C@H]3CCC[C@@H](CN4CCCC4)[C@H]3C2)ncn1,-8.91%
19,O=C1CC2(CCN(Cc3ccsc3)C2)CN1c1ccc2c(c1)OCO2 (configuration not stated),10.9%
20,O=C(NCCN1CCCCC1=O)C1CCC(=O)N(C2CCCC2)C1 (configuration not stated),-3.21%
21,CCn1c(C2CCN(C(=O)c3cc(CC(C)C)no3)CC2)nn(C)c1=O,3.74%
22,O=C(CN1C(=O)CCNC1=O)N1CCOC(c2ccc(Cl)c(Cl)c2)C1 (configuration not stated),-10.7%

row,SMILES,cytotoxicity at 70.5 h
1,CCn1c(N)nc2cc(C(=O)N3CCN(CC(F)(F)F)CC3)cnc21,-13%
2,COc1cccc(-n2c(SCC(=O)O)nnc2-c2cn[nH]c2)c1,-3.32%
3,CCc1nnc(CN(CC)C(=O)C(C)n2ccnc2C(C)C)o1 (configuration not stated),-5.37%
4,COCCn1cnnc1CN(C)c1nc(N)nc2c1CCCC2,3.03%
5,CC1=C(C(=O)N2CCOC(Cc3cccc(C(F)(F)F)c3)C2)OCCO1 (configuration not stated),-6.57%
6,Cc1ncsc1CCN(C)Cc1cc2n(n1)CCN(Cc1ncc[nH]1)C2,47.1%
7,COC(=O)CNC(=O)N1CCC2(CC1)CC(c1ccccc1)CN(C)C2 (configuration not stated),15.9%
8,CC(C)Oc1ccc(CN2CCN3CCN(C)CC3C2)cc1CO (configuration not stated),-5.57%
9,O=C1CC2(CCN(CCCO)CC2)CN1Cc1ccc(F)c(F)c1,-5%
10,COc1cccc(OC2CN(C(=O)c3cc(CC(C)C)nn3C)C2)c1,-1.49%
11,CCn1c(C2CCCN(C(=O)C(C)(C)OC)C2)nn(CCN(C)C)c1=O (configuration not stated),-1.55%
12,CC(C)n1cccc1C(=O)N1CC[C@@H](NC(=O)c2ccccn2)[C@H](O)C1,-14.5%
13,Cn1c(CN2CCC(OCc3cccnc3)CC2)cc2ccccc21,1.71%
14,CC(O)c1cn(CC2CCN(C(=O)CN3CCCC3=O)CC2)nn1 (configuration not stated),-10.1%
15,CCC(=O)N1CCN(C(=O)Nc2ccc(Cl)cc2)[C@H]2CS(=O)(=O)C[C@H]21,-14.3%
16,COc1ccccc1N1CCN(C(=O)CCc2nncn2C)C(C)C1 (configuration not stated),17.3%
17,Cc1n[nH]c(C)c1CCN(C)C(=O)c1ccc(CN2CCCCC2)cc1,34.3%
18,Cn1ccnc1CN1CCC(c2ccnc(-c3cccc(O)c3)c2)C1 (configuration not stated),-1.18%
19,COCCn1ccnc1C1CCN(c2cccc(C(=O)O)n2)CC1,-3.81%
20,CC1CCN(S(=O)(=O)N2C[C@H](c3ccccc3)[C@@H](N)C2)CC1,27.7%
21,COCCCN1CC2(CCCN(c3ncnc4[nH]cnc34)C2)CCC1=O (configuration not stated),-6.06%
22,COc1ccccc1CCC(=O)N1C[C@H](c2ccccc2)[C@@H](N)C1,-8.71%

row,SMILES,cytotoxicity at 70.5 h
1,COc1cccc(-c2nc3c([nH]2)CCNC3)c1F,-12.1%
2,Cc1cc(-c2cc(S(=O)(=O)N3C[C@H](C4CC4)[C@@H](N)C3)c(C)s2)[nH]n1,-9.13%
3,CC(C)CC(NC(=O)c1cc(C2CC2)n[nH]1)c1ncnn1C (configuration not stated),20.9%
4,COc1ccccc1CN1C(=O)O[C@@H]2CN(CC3CC3)C[C@@H]21,-0.52%
5,CCOc1ccc(C(=O)N2C[C@H]3CC[C@@H]2CN(C(=O)C2CCC2)C3)cc1,-0.418%
6,O=C(CSCC1CC1)N1CCCN(c2ccc(F)cc2)CC1,-7.69%
7,CC1(Cc2ccc3c(c2)OCO3)CCCN(S(=O)(=O)N2CCCC2)C1 (configuration not stated),0.304%
8,CCCn1ccnc1CN1CCC(Oc2ccc(Cl)cc2)(C(=O)O)CC1,-10.4%
9,Cc1cc(N(C)CCN(C)C2CCCC2)n2nc(C)cc2n1,-1.99%
10,COc1ccc(OCc2cc(C(=O)N3CCC(O)CC3)n[nH]2)c(Cl)c1,-5.72%
11,Cc1nn(C)cc1-c1ccnc(N2CCSCC2)n1,-1.53%
12,Cn1ncnc1-c1ccnc(NCc2ccncc2)n1,-13.8%
13,Cc1cccc(C(Nc2nccc(-c3ccc(C)nc3C)n2)C2CC2)n1 (configuration not stated),-3.12%
14,Cc1c[nH]c(CN2CCCCC2CCn2ccnc2C)c(C)c1=O (configuration not stated),-8.38%
15,O=C1N(Cc2ccc(F)c(F)c2)CCCC1(O)CNCc1cccnc1 (configuration not stated),-4.19%
16,CCC(C)N(Cc1ccc(C)cc1)Cc1c[nH]c(C)n1 (configuration not stated),-5.02%
17,COc1ccc(CN2CCn3cncc3C2)cc1Cn1cncn1,-5.89%
18,CCOc1ccc(C(=O)N2CCC(Oc3ccccc3)(C(=O)O)CC2)o1,-3.49%
19,c1ccc(Cc2noc(-c3ccc(NCC4CCCCO4)nc3)n2)cc1 (configuration not stated),26.1%
20,Cc1ncc(S(C)(=O)=O)c(N2Cc3ccccc3C2)n1,2.76%
21,O=C(O)c1cc(-n2cc3c(n2)CCC3)cc(S(=O)(=O)NC2CCCC2)c1,26.3%
22,COc1ccc(C(=O)C2CCCN(c3nccc(N)n3)C2)c(C)c1 (configuration not stated),-4.73%

row,SMILES,cytotoxicity at 70.5 h
1,Cc1nc(N2CCC3(CCCNC3=O)C2)nc2c1CCCC2 (configuration not stated),-3.11%
2,Cc1cc(C)c(C(=O)NC2CCN(c3ncccc3C#N)CC2)c(=O)[nH]1,-11.1%
3,CCn1ccnc1C1CCN(Cc2cccc(C)n2)CC1,2.62%
4,CC(C)=CCN1CCN(C(=O)c2snnc2C)[C@H]2CS(=O)(=O)C[C@H]21,-9.09%
5,Cc1cccc(=O)n1CCCNc1nc(N(C)C)nc2c1CCNC2,18.8%
6,COc1ccc2[nH]nc(CN3CCN(Cc4cccc(F)c4)CC3)c2c1,4.06%
7,Cc1nc[nH]c1CN1CCCC12CCN(c1nc3ccccc3s1)CC2,-1.37%
8,Cc1nc(CCN)cc(N2CCC(O)(c3ccc(Cl)cc3)CC2)n1,19.3%
9,Nc1nnc(CCNc2ncnc3c2CCN(C(=O)C2CC2)C3)s1,-4.19%
10,O=C(NCCCn1cnnc1)C1CCCN(C2CCCC2)C1 (configuration not stated),26.7%
11,CCC(=O)N1CCC2(CC1)COCCN2Cc1ccc(F)cc1,-10.7%
12,CNC(=O)CN1CCOCC12CCN(C(=O)c1ccccc1)CC2,-5.33%
13,CC(C)CC(=O)N1CCC2(CC1)COCCN2Cc1ccc(F)cc1,-11.1%
14,Cn1cc(CN2CCC3(CCN(c4cnn(C)c4)C3=O)C2)cn1 (configuration not stated),-10.8%
15,COc1ccc(CN2CCC3(CC2)CCN(c2cnn(C)c2)C3=O)cc1,-6.09%
16,CCN1CCOCC12CCN(C(=O)Cc1ccccc1)CC2,-11.2%
17,O=C(C1CC1)N1CCC2(CC1)COCCN2Cc1ccc(F)cc1,0.119%
18,CC(C)C(=O)N1CCC2(CC1)COCCN2Cc1ccc(F)cc1,-2.33%
19,CN(C)CCOC[C@H]1CC[C@H]2[C@H](CCN2C(=O)c2ccoc2)O1,-12.4%
20,O=C1[C@H]2CN(Cc3nccs3)C[C@H]2CN1c1cncnc1,-8.02%
21,COc1cc(N2CC[C@@H](O)[C@@H]2Cc2ccncc2)ncn1,-10%
22,Fc1cnc(N2CC3(CCN(Cc4ccsc4)C3)C2)nc1,-6.5%

row,SMILES,cytotoxicity at 70.5 h
1,CS(=O)(=O)N[C@@H]1CN(C(=O)c2cccnc2)[C@@H]2CCCO[C@@H]21,-5.12%
2,COCC1CN(CC2CC2)Cc2nccn2C1 (configuration not stated),-6.11%
3,O=C1[C@H]2CN(Cc3ccco3)C[C@H]2CN1c1ccsc1,-11.1%
4,Cc1noc(C)c1CN1CC[C@H]2OCC[C@@]2(C(=O)N(C)C)C1,-10.5%
5,CN1CCO[C@H]2CN(C(=O)c3ccoc3)C[C@H]21,-7.03%
6,COCC(=O)N1CCC2(CC1)CN(c1ccccn1)CCO2,-7.15%
7,COCCN1CCOCC12CCN(C(=O)c1ccncc1)CC2,-9.1%
8,COCCN1CCOCC12CCN(C(=O)c1cccnc1)CC2,-8.13%
9,Cn1cc(N2CC3(CCN(Cc4ccsc4)CC3)OCC2=O)cn1,13.1%
10,C[C@H]1C[C@H]2CN(Cc3ccccn3)CC[C@@H]2O1,-3.43%
11,Cc1ccc(N2CCO[C@H]3CN(Cc4nccs4)C[C@H]32)nn1,-6.14%
12,COc1ccccc1CN1C[C@@H]2COC[C@]2(COCc2ccncc2)C1,-10.2%
13,O=C1[C@H]2CN(Cc3ccccn3)C[C@H]2CN1c1ccsc1,-6.18%
14,O=C1[C@H]2CN(Cc3ccncc3)C[C@H]2CN1c1ccsc1,-10.1%
15,COCCNC(=O)[C@@]12CCO[C@@H]1CCN(Cc1ccncc1)C2,-10.2%
16,O=C1CC2(CCN(Cc3ccncc3)C2)CN1c1ccc2c(c1)OCO2 (configuration not stated),30%
17,COCCN(C)C1COC2(CCN(Cc3ccccn3)CC2)C1 (configuration not stated),11.6%
18,Cc1ccc(N2CCO[C@H]3CN(Cc4cccnc4)C[C@H]32)nn1,12.6%
19,CN1CCN(CC2CN(CC3CC3)Cc3nccn3C2)CC1 (configuration not stated),-6.02%
